Consider 24 compounds from patent US5358946A, “Heterocycle-substituted amides, carbamates and ureas as agents for the treatment of atherosclerosis” (The Du Pont Merck Pharmaceutical Company, priority 1992, dated 1994).

Structures are written as SMILES.

As usually defined, the IC50 is the concentration needed to halve the response being measured.

The target of the first assay is T1, acyl-CoA: cholesterol acyltransferase (ACAT) (Rattus norvegicus, UniProt Q7TQM4).
T1 construct: Microsomes were obtained by differential centrifugation; from tissue; host or cells: liver microsomes of male Sprague Dawley rats
T1 sequence (Q7TQM4 1-524): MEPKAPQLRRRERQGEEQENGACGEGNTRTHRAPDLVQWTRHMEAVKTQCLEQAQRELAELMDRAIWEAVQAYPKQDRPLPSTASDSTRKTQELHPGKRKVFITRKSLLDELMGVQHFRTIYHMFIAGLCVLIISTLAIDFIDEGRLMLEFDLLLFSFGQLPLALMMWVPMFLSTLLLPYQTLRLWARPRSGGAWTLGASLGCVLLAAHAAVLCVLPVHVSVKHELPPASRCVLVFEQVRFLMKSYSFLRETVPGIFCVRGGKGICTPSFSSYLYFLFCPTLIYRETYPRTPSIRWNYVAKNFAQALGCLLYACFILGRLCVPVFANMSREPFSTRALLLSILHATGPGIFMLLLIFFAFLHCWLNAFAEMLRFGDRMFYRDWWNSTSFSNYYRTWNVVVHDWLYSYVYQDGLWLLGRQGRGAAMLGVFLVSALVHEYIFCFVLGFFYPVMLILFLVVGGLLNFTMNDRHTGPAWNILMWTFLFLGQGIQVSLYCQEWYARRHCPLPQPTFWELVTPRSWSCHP
The assay is described as follows: Inhibition of Acyl-CoA: Cholesterol Acyltransferase (ACAT) in hepatic microsomes (in vitro hepatic ACAT activity). The conditions noted are these: 14C-oleoyl-CoA, 15 min preincubation at 37° C., pH 7.4, read-out: Inhibition of Cholesterol Esterification (IC50). The assay is classed as biochemical, rat (male Sprague Dawley). As for the experimental part:
The ability of the compounds to inhibit ACAT, the enzyme responsible for the intracellular synthesis of cholesteryl esters, was tested as follows. Male Sprague Dawley rats weighing 150-300 g, were fed rat chow ad libitum. The animals were fasted for twenty-four hours prior to being sacrificed by decapitation. The livers were perfused in situ with 50 ml of cold 0.25M sucrose, excised, and homogenized in three volumes of 0.1M phosphate buffer, pH 7.4, that contained 0.5 mM EDTA (ethylenediaminetetraacetic acid), 1.0 mM glutathione, 0.25M sucrose and […]. Microsomes were obtained by differential centrifugation; the supernatant from an initial spin at 15,000×g for 15 minutes was centrifuged at 105,000×g for 1 hour to pellet the microsomes. The microsomes were suspended in homogenization buffer, reisolated by centrifugation, and stored at -70° C. Microsomes were used within one month of preparation.
The control assay in a final volume of 200 μl consisted of 200 μg of microsomal protein, 75μ<^14 C-oleoyl-CoA (10,000 dpm/nmol) in 0.1M phosphate, pH 7.4, that contained 1 mM glutathione. Compounds were added in 5 μl of DMSO (dimethyl sulfoxide) and additional controls were run with DMSO only. All components, except the oleoyl-CoA, were preincubated for 15 min. at 37° C. prior to the initiation of the reaction by the addition of oleoyl-CoA. The assay was terminated after 10 min. by the addition of 4 ml of chloroform:methanol (2:1, v/v). 20,000 dpm of 3H-choledsteryl oleate and 10 μg of unlabeled cholesteryl oleate and oleic acid were added as an internal standard and carriers, respectively. After allowing 10 min. for lipid extraction, 0.8 ml of deionized water was added to separte the solution into two phases. The lower chloroform phase was collected, dried under nitrogen and resuspended in 2 ml of hexane:diethyl ether (97:3 v/v). The lipids were then loaded onto BAKERSBOND spe* silica gel columns. Extracts were collected in scintillation vials and counted for radioactivity. The specific activity of ACAT in the control incubation averaged 260 pmol/min/mg microsomal protein.
As for `CCCCCCCN(CCNC(=O)CSc1nc(-c2ccc(OC)cc2)c(-c2ccc(OC)cc2)[nH]1)C(=O)Nc1ccc(F)cc1F` [Example 432], the IC50 was 3.75 µM.

`CCCCCCCN(CCOC(=O)CSc1nc(-c2ccc(OC)cc2)c(-c2ccc(OC)cc2)[nH]1)C(=O)Nc1ccc(F)cc1F` [Example 422, N-[2-[2-(4,5-bis(4-methoxyphenyl)-1H-imidazol-2-ylthio)-acetoxy]-ethyl]-N'-(2,4-diflurophenyl)-N -heptyl-urea]: the 50% inhibitory concentration (IC50) turned out to be 2.6 µM.

`COc1ccc(-c2nc(SCCCCCN(CCOCCO)C(=O)NC(C)C)[nH]c2-c2ccc(OC)cc2)cc1` [Example 284]: the IC50 came out at 0.48 µM.

As for `CCCN(CCOC(=O)CSc1nc(-c2ccccc2)c(-c2ccccc2)[nH]1)C(=O)Nc1ccc(F)cc1F` [Example 421], the IC50 came to 4.1 µM.

The target in a further assay is T2, ACAT (Mus musculus, UniProt Q61263).
T2 construct: endogenous in cells; host or cells: J774.A1 (murine macrophage-like)
T2 sequence (Q61263 1-540): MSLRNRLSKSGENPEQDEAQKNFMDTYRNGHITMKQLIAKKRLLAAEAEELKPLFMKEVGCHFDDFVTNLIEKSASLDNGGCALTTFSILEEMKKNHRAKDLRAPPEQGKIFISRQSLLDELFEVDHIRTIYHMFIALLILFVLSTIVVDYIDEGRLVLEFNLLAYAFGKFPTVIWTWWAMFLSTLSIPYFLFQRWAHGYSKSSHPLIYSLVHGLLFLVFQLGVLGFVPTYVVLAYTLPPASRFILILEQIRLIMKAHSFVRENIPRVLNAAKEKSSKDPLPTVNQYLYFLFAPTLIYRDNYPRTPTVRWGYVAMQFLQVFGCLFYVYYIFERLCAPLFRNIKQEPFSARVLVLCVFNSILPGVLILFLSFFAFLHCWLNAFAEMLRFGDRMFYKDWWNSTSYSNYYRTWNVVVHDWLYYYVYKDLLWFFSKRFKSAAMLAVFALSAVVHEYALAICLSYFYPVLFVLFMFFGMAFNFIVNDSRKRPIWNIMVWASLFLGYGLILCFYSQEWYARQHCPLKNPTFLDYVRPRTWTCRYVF
Description: Inhibition of cholesterol esterification in the murine macrophage-like cell line J774.A1. The assay is classed as cell-based. The conditions noted are these: J774.A1 cells, ac-LDL loaded, 14C-oleic acid pulse. As for the experimental part: The esterification of cholesterol was determined in the murine macrophage-like cell line J774.A1. Cells were seeded in 35 mm wells at a density of 300,000 cells per well in 2 mls of Dulbecco's Eagle Medium (DMEM) supplemented with 10% fetal bovine serum (FBS). Cells were incubated at 37° C. in an atmosphere of 5% CO2 and 93% humidity. After […] the media was changed to 0.68 mls 10% FBS-DMEM containing 34 μg of acetylated human low density lipoprotein (ac-LDL) to increase the intracellular concentration of cholesterol and promote esterification. At 41 hours, various inhibitors were added to the cells in DMSO (10 μl/ml maximum). At 43 hours, the cells were pulsed with 0.1 mM ^14 C-oleic acid (10,000 dpm/nmol) complexed with BSA (bovine serum albumin) to follow cholesterol ester formation. The experiment was terminated at 45 hours by washing the monolayers 3 times with 3 ml of Tris-buffered saline at 4° C. The lipids were extracted by incubating the monolayers with 1.5 ml of hexane: isopropanol (3:2, v/v) for 30 min. under gentle agitation. During this period, 10,000 dpm ^3 H-cholesterol oleate and 10 μg of unlabeled cholesteryl oleate, oleic acid, triolein and cholesterol were added as an […] standard and carriers. The organic solvent was removed and the cells were washed with an additional 1.0 ml of hexane: isopropanol which was combined with the original extract. The cells were allowed to dry overnight, digested with 2.0 ml of 0.2N sodium hydroxide for 1 hour and an aliquot of the solubilized protein used for protein determination using the Lowry method. […] Extracts were collected in scintillation vials to determine the amount of radioactivity. The conversion of oleic acid to cholesteryl ester in the control averaged 0.54 mmol/hour/mg protein and was increased upon the addition of ac-LDL to about 10.689±0.69 mmol/hour/mg protein.
With `CCCCCCCN(CCN(C)CCSc1nc(-c2ccccc2)c(-c2ccccc2)[nH]1)C(=O)Nc1ccc(F)cc1F` [Example 101, N'-(2,4-difluorophenyl)-N-[2-[2-(4,5-diphenyl-1H-imidazol-2-ylthio)ethyl]-N-[methylamino]ethyl]-N-heptyl-urea], the 50% inhibitory concentration (IC50) came to 1.47 µM.

In turn, `COc1ccc(-c2nc(SCCCCCN(CCN3CCOCC3)C(=O)Nc3ccc(F)cc3F)[nH]c2-c2ccc(OC)cc2)cc1` [Example 162, N-[5-[4,5-bis(4-methoxyphenyl)-1H-imidazol-2-ylthio]pentyl]-N'-(2,4-difluorophenyl)-N-[2-(1-morpholinyl)ethyl]-urea] yielded a concentration for half-maximal inhibition (IC50) of 1.34 µM.

Compound `CCCCCCCN(CCNC(=O)CSc1nc(-c2ccc(OC)cc2)c(-c2ccc(OC)cc2)[nH]1)C(=O)Nc1ccc(F)cc1F` [Example 432] gave an IC50 of 0.8 µM.

Take `CCOCCOCCN(CCCCCSc1nc(-c2ccc(SC)cc2)c(-c2ccc(SC)cc2)[nH]1)C(=O)NC(C)C` [Example 325]: half-maximal inhibition (IC50) required 0.041 µM.

For the compound `CCCCOCCN(CCCCCSc1nc(-c2ccccc2)c(-c2ccccc2)[nH]1)C(=O)NC(C)C` [Example 262, N-(2-butoxyethyl)-N-[5-(4,5-diphenyl-1H-imidazol-2-ylthio)pentyl]-N'-(1-methylethyl)-urea], the IC50 was found to be 0.84 µM.

As for `CCCCCCCN(CCN(C)CCSc1nc(-c2ccccc2)c(-c2ccccc2)[nH]1)C(=O)NC(C)C` [Example 102], the IC50 turned out to be 2.4 µM.

`CCCCCCCN(CCOCCSc1nc(-c2ccccc2)c(-c2ccccc2)[nH]1)C(=O)Nc1ccc(F)cc1F` [Example 361]: the IC50 came to 3.98 µM.

In turn, `CCCCOCCN(CCCCCSc1nc(-c2ccccc2)c(-c2ccccc2)[nH]1)C(=O)Nc1ccc(F)cc1F` [Example 261, N-(2-butoxyethyl)-N'-(2,4-difluorophenyl)-N-[5-(4,5-diphenyl-1H-imidazol-2-ylthio)pentyl]-urea] showed an IC50 of 1.75 µM.

Take `CCCCCCCN(CCOCCSc1nc(-c2ccccc2)c(-c2ccccc2)[nH]1)C(=O)NC(C)C` [Example 362]: the IC50 was determined as 0.99 µM.

With `CCN(CC)CCN(CCCCCSc1nc(-c2ccccc2)c(-c2ccccc2)[nH]1)C(=O)NC(C)C` [Example 1, N-[2-(diethylamino)ethyl]-N-[5-(4,5-diphenyl-1H-imidazol-2-ylthio)pentyl]-N'-(1-methylethyl)-urea], the IC50 stood at 0.58 µM.

In turn, `CCCCCCCN(CCOC(=O)CSc1nc(-c2ccc(OC)cc2)c(-c2ccc(OC)cc2)[nH]1)C(=O)Nc1ccc(F)cc1F` [Example 422, N-[2-[2-(4,5-bis(4-methoxyphenyl)-1H-imidazol-2-ylthio)-acetoxy]-ethyl]-N'-(2,4-diflurophenyl)-N -heptyl-urea] came in with an IC50 of 2.39 µM.

On to `O=C(Nc1ccc(F)cc1F)N(CCCCCSc1nc(-c2ccccc2)c(-c2ccccc2)[nH]1)CCOCCO` [Example 281], for which the half-maximal inhibitory concentration (IC50) was determined as 6.74 µM.

For the compound `CN(CCSc1nc(-c2ccccc2)c(-c2ccccc2)[nH]1)CCN(CCN1CCOCC1)C(=O)Nc1ccc(F)cc1F` [Example 181], the IC50 was found to be 2.74 µM.

For the compound `CCN(CC)CCN(CCCCCSc1nc(-c2ccccc2)c(-c2ccccc2)[nH]1)C(=O)Nc1ccc(F)cc1F` [Example 2], the concentration for half-maximal inhibition (IC50) is 2.18 µM.

In turn, `CCOCCOCCN(CCCCCSc1nc(-c2ccccc2)c(-c2ccccc2)[nH]1)C(=O)Nc1ccc(F)cc1F` [Example 321] returned a 50% inhibitory concentration (IC50) of 4.01 µM.

For the compound `COCCOCCN(CCCCCSc1nc(-c2ccc(OC)cc2)c(-c2ccc(OC)cc2)[nH]1)C(=O)Nc1ccc(F)cc1F` [Example 303, N-[5-[4,5-bis(4-methoxyphenyl)-1H-imidazol-2-ylthio]pentyl]-N '-(2,4-difluorophenyl)-N-[2-(2-methoxyethoxy)ethyl]-urea], the midpoint of inhibition, the IC50, lay at 0.25 µM.

In turn, `CC(C)NC(=O)N(CCN(C)CCSc1nc(-c2ccccc2)c(-c2ccccc2)[nH]1)CCN1CCOCC1` [Example 183] displayed a concentration for half-maximal inhibition (IC50) of 6.28 µM.

On to `CCCCCCCN(CCOCCSc1nc(-c2ccc(OC)cc2)c(-c2ccc(OC)cc2)[nH]1)C(=O)Nc1ccc(F)cc1F` [Example 364], for which the IC50 was determined as 0.5 µM.

In turn, `CC(C)NC(=O)N(CCCCCSc1nc(-c2ccccc2)c(-c2ccccc2)[nH]1)CCOCCO` [Example 282, N-[5-(4,5-diphenyl-1H-imidazol-2-ylthio)-pentyl]-N-[2-(2-hydroxyethoxy)-ethyl]-N'-(1-methylethyl)-urea] yielded a concentration for half-maximal inhibition (IC50) of 6.84 µM.

In turn, `COc1ccc(-c2nc(SCCCCCN(CCOCCO)C(=O)NC(C)C)[nH]c2-c2ccc(OC)cc2)cc1` [Example 284] showed an IC50 of 2.42 µM.

For `COc1ccc(-c2nc(SCCCCCN(CCOCCO)C(=O)Nc3ccc(F)cc3F)[nH]c2-c2ccc(OC)cc2)cc1` [Example 283, N-[5-[4,5-bis(4-methoxyphenyl)-1H-imidazol-2-ylthio]pentyl]-N '-(2,4-difluorophenyl)-N-[2-(2-hydroxyethoxy)ethyl]-urea], it took 0.84 µM to reach half-maximal inhibition (IC50).

`CCOCCOCCN(CCCCCSc1nc(-c2ccccc2)c(-c2ccccc2)[nH]1)C(=O)NC(C)C` [Example 322] displayed a 50% inhibitory concentration (IC50) of 3.02 µM.

`CCCN(CCOC(=O)CSc1nc(-c2ccccc2)c(-c2ccccc2)[nH]1)C(=O)Nc1ccc(F)cc1F` [Example 421] came in with an IC50 of 3.68 µM.

`COCCOCCN(CCCCCSc1nc(-c2ccc(OC)cc2)c(-c2ccc(OC)cc2)[nH]1)C(=O)NC(C)C` [Example 304, N-[5-[4,5-bis(4-methoxyphenyl)-1H-imidazol-2-ylthio]-pentyl]-N-[2-(2-methoxyethoxy)-ethyl]-N'-(1-methylethyl)-urea] registered an IC50 of 0.36 µM.
